Where two headings read alike, the source gives them in different places.
Legend:
[1] = in vivo; conditions: in vivo; for HPLC peak area in hemolymph: silkworm (Bombyx mori)
Method: Antibiotics were injected into silkworm hemolymph and hemolymph was collected by cutting the legs at the indicated time.
Antibiotics dissolved in saline were injected into the hemolymph of 5th instar silkworms using a 1-mL syringe attached to a 27 G needle. Hemolymph was harvested from abdominal appendages by cutting them with scissors at the indicated time-points after administration, and mixed with an equal volume of acetone. Samples were centrifuged at 15,000 rpm for 5 min at 4 °C, and the supernatants were evaporated with a centrifuge evaporator[18]. The dried materials were dissolved in 50% methanol and filtrated through a 0.45-µm filter. […] The amount of antibiotics in the sample was quantified from the peak area of the chromatogram.

[2] = in vivo, 10 mg/kg; cited from earlier work
[3] = test system: cytochrome P450; assay: Decay of cytochrome P450 substrates in in vitro culture of the silkworm midgut (HPLC)
Method: Silkworm midgut was incubated in medium with cytochrome P450 substrates at 30 °C. The samples were collected, extracted by acetone, and evaporated. The amounts of substrates were determined by HPLC analysis.
Silkworms (5th instar, 5 days) were dissected in a buffer (10 mM HEPES/NaOH, 0.9% NaCl, pH 7.9), and isolated organs were incubated with 3 mL TC-100 medium containing 10% fetal bovine serum, 50 µg/ml gentamicin, and substrates for the metabolic reaction. Whole samples (medium and organ) were homogenized and extracted by equal volumes of acetone followed by evaporation. Extracted samples were dissolved in 50 mM NaOAc buffer and treated with beta-glucosidase to measure the fluorescence of metabolized 7-ethoxycoumarin[6]. […] Samples for HPLC were dissolved in 50% methanol. HPLC analysis was performed using a PEGASIL ODS SP column (φ4.5 mm × 250 mm) with isocratic elution at a flow rate of 1 ml/min.

[4] = test system: cytochrome P450; assay: 7-ethoxycoumarin deethylation activity in silkworm tissue culture (fluorometry); assay type: in vitro ADME, Bombyx mori (silkworm); conditions: midgut, fat body, silk gland, Malpighian tubule in organ culture
Method: Figure 2 Tissue specificity of 7-ethoxycoumarin deethylation activity in silkworm. (A) The midgut, fat body, silk gland, and Malpighian tubule were extirpated from silkworms and incubated in medium containing 7-ethoxycoumarin at 30 °C. Medium was collected, extracted by acetone, and evaporated. Samples […] in 50 mM NaOAc buffer (pH 6.0) were treated with beta-glucosidase. The amount of 7-hydroxycomarin, a metabolite, was determined by fluorometry. (B) Inhibition of 7-ethoxycoumarin deethylation by cimetidine in the silkworm midgut. Silkworm midgut was incubated in medium containing 7-ethoxycoumarin and cimetidine at 30 °C. Samples were collected, extracted by acetone, and treated with beta-glucosidase. The amount of 7-hydroxycomarin was determined by fluorometry.
Samples for HPLC were dissolved in 50% methanol.

[5] = midgut culture, 0 h, raw data of Fig. 3
[6] = midgut culture, 1 h, raw data of Fig. 3
[7] = midgut culture, 4 h, raw data of Fig. 3
[8] = midgut culture, 20 h, raw data of Fig. 3

Compound: O=C(N[C@H](CO)[C@H](O)c1ccc([N+](=O)[O-])cc1)C(Cl)Cl [Chloramphenicol]
- Cltot (total body clearance) [1]: 0.15 mL/g/h
- Time-course of the decrease in concentration in hemolymph (in words) [1]: biphasic
- half-life [1]: 6 h
- HPLC peak area in hemolymph ([1]; 0.1 min): 10505876
- HPLC peak area in hemolymph ([1]; 1 min): 8079061
- HPLC peak area in hemolymph ([1]; 5 min): 4188656
- HPLC peak area in hemolymph ([1]; 10 min): 3076056
- HPLC peak area in hemolymph ([1]; 20 min): 2727973
- HPLC peak area in hemolymph ([1]; 30 min): 1928231
- HPLC peak area in hemolymph ([1]; 60 min): 2239912
- HPLC peak area in hemolymph ([1]; 90 min): 1941121
- HPLC peak area in hemolymph ([1]; 120 min): 1803643
- HPLC peak area in hemolymph ([1]; 180 min): 1414738
- HPLC peak area in hemolymph ([1]; 240 min): 1202608
- Cltot [2]: 0.24 mL/g/h

Compound: C[C@]12CC[C@H]3[C@@H](CCC4=CC(=O)CC[C@@]43C)[C@@H]1CC[C@@H]2O [Testosterone]
- Metabolism in the silkworm midgut (in words) ([3]; in vitro organ culture, up to 20 h incubation): metabolized in the silkworm midgut
- HPLC peak area of substrate [3, 5]: 3160000
- HPLC peak area of substrate [3, 6]: 1620000
- HPLC peak area of substrate [3, 7]: 1110000
- HPLC peak area of substrate [3, 8]: 1210000

Compound: Cn1c(=O)c2c(ncn2C)n(C)c1=O [Caffeine]
- HPLC peak area of substrate, Sample 1 [3, 5]: 236597
- HPLC peak area of substrate, Sample 2 [3, 5]: 235789
- HPLC peak area of substrate, Sample 1 [3, 6]: 225184
- HPLC peak area of substrate, Sample 2 [3, 6]: 213119
- HPLC peak area of substrate, Sample 1 [3, 7]: 220757
- HPLC peak area of substrate, Sample 2 [3, 7]: 220302
- HPLC peak area of substrate, Sample 1 [3, 8]: 226873
- HPLC peak area of substrate, Sample 2 [3, 8]: 222211

Compound: COc1ccc2[nH]c([S+]([O-])Cc3ncc(C)c(OC)c3C)nc2c1 (stereo not shown) [Omeprazole]
- Metabolism in the silkworm midgut (in words) [3]: metabolized in the silkworm midgut
- HPLC peak area of substrate, Sample 1 ([3]; silkworm (Bombyx mori), 0 h): 141638
- HPLC peak area of substrate, Sample 2 ([3]; silkworm (Bombyx mori), 0 h): 142171
- HPLC peak area of substrate, Sample 1 ([3]; silkworm (Bombyx mori), 1 h): 117549
- HPLC peak area of substrate, Sample 2 ([3]; silkworm (Bombyx mori), 1 h): 116381
- HPLC peak area of substrate, Sample 1 ([3]; silkworm (Bombyx mori), 4 h): 57706
- HPLC peak area of substrate, Sample 2 ([3]; silkworm (Bombyx mori), 4 h): 60668
- HPLC peak area of substrate, Sample 1 ([3]; silkworm (Bombyx mori), 20 h): 8164
- HPLC peak area of substrate, Sample 2 ([3]; silkworm (Bombyx mori), 20 h): 1815

Compound: CCOc1ccc2ccc(=O)oc2c1 [7-ethoxycoumarin]
- Tissue with the highest capacity to metabolize the compound (in words) [4]: the midgut, not the fat body, had the highest capacity to metabolize

Compound: O=C(O)Cc1ccccc1Nc1c(Cl)cccc1Cl [Diclofenac]
- Metabolism in the silkworm midgut (in words) [3]: metabolized in the silkworm midgut
- HPLC peak area of substrate ([3]; silkworm (Bombyx mori), 0 h): 2620000
- HPLC peak area of substrate ([3]; silkworm (Bombyx mori), 1 h): 2450000
- HPLC peak area of substrate ([3]; silkworm (Bombyx mori), 4 h): 2250000
- HPLC peak area of substrate ([3]; silkworm (Bombyx mori), 20 h): 1370000
